Results taken from patent US12275686B2, “NO donor compound, preparation method thereof, pharmaceutical composition comprising same, and use thereof” (SOUTHEAST UNIVERSITY, priority 2022, dated 2025).

How the values were obtained:
[1] = tested on: mTORC1 and TSC2-P proteins; assay: Expression level of myocardial injury marker proteins in myocardial hypoxia mouse, Western blot; format: in vivo; conditions: hypoxia model mouse pretreated with 20 mg/kg, FIG. 3
Source text: Western Blot gel preparation kit (Biyuntian Biotechnology Co., Ltd., Shanghai), BCA detection kit for protein quantification (Biyuntian Biotechnology Co., Ltd., Shanghai), ionization buffer, wet transfer solution, primary antibody (anti-TSC2-P, Abgent, 1:1000, A-AP3825a; anti-mTORC1, Abcam, 1:1000, ab120224; anti-GAPDH, Bioworld Technology, 1:500, AP0063), secondary antibody (Goat Anti-Rabbit IgG (H+L) HRP, 1:3000, Bioworld Technology, BS13278), 6-8-week-old male Kunming mouse.
The changes of protein expression levels are analyzed based on Western Blot bands.
• (1) Mouse heart tissue protein was extracted and centrifuged at 12,000 rpm for 15 min to collect the protein, the protein was quantified using a BCA kit, and added to boiling water in loading buffer and cook for 5 min for later use; • (2) SDS-PAGE gel was prepared and the sample was loaded to separate protein bands; • (3) After transferring the protein bands to the PVDF membrane, the membrane was blocked with milk to incubate primary and secondary antibodies in sequence. The protein bands were visualized using a chemiluminescence developer to analyze the changes of protein expression in each group, as shown in FIG. 3.

H9c2 cells [2] = assay: NO release level in H9c2 cells under normoxia or hypoxia, Griess method; format: cell-based; conditions: for NO release (%) / NO release amount (%): H9c2 cells, 4 h; for NO release (%): hypoxia (1% O2); for NO release amount (%): normoxia (21% O2)
Protocol: H9c2 cells were revived, cultured with DMEM medium, and placed in a carbon dioxide incubator to allow the cells to adhere to the wall for growth. After the cells grew to reach an appropriate density, cells were inoculated in a multi-well plate and placed in the carbon dioxide incubator for culture for 24 h at 37° C., 5% CO2, and saturated humidity until the cells adhered to the wall, the supernatant was discarded, and 2 mL of fresh DMEM medium was added. Then, a certain concentration (5, 10, 15 μM) of compounds and the reference drug of isosorbide dinitrate were added. After culturing in a normoxic incubator (37° C., 21% O2) or an anoxic incubator (37° C., 1% O2) for 4 h, the supernatant was removed, and the cells in the multi-well plate were collected in 1.5 mL centrifuge tubes and centrifuged at 1000 rpm for 5 min, the supernatant was discarded, 1 mL of PBS was added into the centrifuge tubes to resuspend the cells, and the cells were centrifuged again, the PBS was discarded. 100 μL of cell lysis buffer (special for NO measurement) was added to the centrifuge tubes, placed on ice for half a minute, and then centrifuged for 5 min at 4° C. and 13300 rpm, and the supernatant was collected. 50 μL of the supernatant was taken in a 96-well plate, three parallel groups were set for each sample, and 50 μL of Griess reagent I and 50 μL of Griess reagent II were added in sequence. The OD value of each well was measured at 540 nm with a full-wavelength microplate reader, and the NO concentration was calculated using the standard curve, as shown in Tables 1 and 2.

[3] = tested on: heart of mouse hypoxia model; assay: NO release level in the heart of mouse hypoxia model, NO detection kit; format: in vivo; conditions: mouse hypoxia model (85 mg/kg isoproterenol), 20 mg/kg intraperitoneally before modeling, FIG. 2
Source text: NO detection kit (Biyuntian Biotechnology Co., Ltd., Shanghai), heart tissue homogenate of hypoxia modeling and drug-given mouse, and blank control group mouse, and 6-8-week-old male Kunming mouse.
NO has chemical activity and is rapidly converted into NO3^− and NO2^− in the body, and NO2^− is further converted into NO3^−. NO^3− is reduced to NO2^− […], NO2^− has characteristic absorption at 540 nm, the absorbance is detected at 540 nm by a microplate reader, and the NO concentration is calculated using a standard curve.
• (1) Hypoxia model (85 mg/kg isoproterenol), the drug-given group was intraperitoneally injected with 20 mg/kg compound I1 before hypoxia modeling; • (2) Cardiac tissue homogenate protein was obtained by centrifugation at 12,000 rpm for 15 min; • (3) The working solution in the NO detection kit was prepared, the working solution was added to each group of proteins, after incubation, and each group of proteins was detected with an microplate reader to analyze the NO content in each group, as shown in FIG. 2.

H9c2 cells [4] = assay: Vitality of H9c2 cells under normoxia or hypoxia (CCK8); format: cell-based; conditions: 4 h; for improvement on the cell viability: normoxic condition, FIG. 1A
Protocol: The cells were washed twice with 5 mL PBS, 1 mL trypsin was added to digest the monolayer cultured H9c2 cells, a single cell suspension was prepared with serum-containing culture medium, and 5000-10000 cells per well were inoculated in a 96-well culture plate. The volume of culture medium per well is 100 μL, and the edge wells are filled with sterilized pure water. The culture plate was moved into a carbon dioxide incubator for culture for 24 h at 37° C., 5% CO2, and saturated humidity until the cells adhere to the wall. 100 μL culture medium in the well was aspirated, 50 μL fresh culture medium was added into the well, and different concentrations of compounds and reference drug isosorbide dinitrate were given respectively to the well. 50 μL drug was added to each well, 3 parallel groups and 1 normoxic group without drug addition as control were set, and concentration gradient of the drug is 10, 1, 0.1, 0.01, 0.001 μM. The normoxic group was incubated in a normal incubator at 5% CO2 and 37° C. for 4 h; and the hypoxic group was incubated in a hypoxic incubator (concentration of 02≤1%) at 37° C. for 4 h. After the culture was completed, 10 μL CCK8 reagent was added to each well and the normoxic group and the hypoxic group continued to be cultured in a normoxic incubator for 4 h, and the culture was terminated. The absorbance of each well was measured at 450 nm with a microplate reader to calculate the cell survival rate of cells at different concentrations, as shown in FIGS. 1A and 1B.

Row | SMILES | NO release (%) (H9c2 cells [2]; compound 5 μM) | NO release (%) (H9c2 cells [2]; compound 10 μM) | NO release (%) (H9c2 cells [2]; compound 15 μM) | NO release amount (%) (H9c2 cells [2]; compound 5 μM) | NO release amount (%) (H9c2 cells [2]; compound 10 μM) | NO release amount (%) (H9c2 cells [2]; compound 15 μM) | other results
1 | CN(N=O)c1ccc(OC(=O)OCc2ccc([N+](=O)[O-])cc2)cc1 [Compound I1, 4-((methylnitroso)amino) phenyl (4-nitrobenzyl) carbonate] | 25.24% | 24.38% | 20.15% | 0.24% | 0.84% | 0.16% | anti-myocardial hypoxic damage effect [1]: excellent anti-myocardial hypoxic damage effect; expression of mTORC1 in the hearts ([1]; Western blot): restored to near a level of the normal group; NO level in the heart [3]: significantly higher than that of the other two groups
2 | CN(N=O)c1ccc(OC(=O)OCc2ccc([N+](=O)[O-])cc2Cl)cc1 [Compound I2, 4-((methylnitroso)amino) phenyl (2-chloro-4-nitrobenzyl) carbonate] | 34.75% | 30.96% | 27.37% | 1.58% | 3.34% | 0.93% | 
3 | Cc1cc([N+](=O)[O-])ccc1COC(=O)Oc1ccc(N(C)N=O)cc1 [Compound I3, 4-((methylnitroso)amino) phenyl (2-methyl-4-nitrobenzyl) carbonate] | 40.58% | 45.42% | 43.21% | 0.43% | 0.92% | 0.32% | 
4 | CN(N=O)c1ccc(OC(=O)OCc2ccccc2[N+](=O)[O-])cc1 [Compound I4, 4-((methylnitroso)amino) phenyl (2-nitrobenzyl) carbonate] | 20.78% | 20.62% | 18.33% | 1.02% | 2.35% | 0.98% | improvement on the cell viability (H9c2 cells [4]; 1 μM): slight improvement on the cell viability
5 | CN(N=O)c1ccc(OC(=O)OCc2ccc(Cl)cc2[N+](=O)[O-])cc1 [Compound I5, 4-((methylnitroso)amino) phenyl (2-nitro-4-chlorobenzyl) carbonate] |  | 0.96% |  |  | 0.15% |  | 
6 | CN(N=O)c1ccc(OC(=O)OCc2ccc(Br)cc2[N+](=O)[O-])cc1 [Compound I6, 4-((methylnitroso)amino) phenyl (2-nitro-4-bromobenzyl) carbonate] |  | 0.94% |  |  | 0.17% |  | 
7 | Cc1ccc(COC(=O)Oc2ccc(N(C)N=O)cc2)c([N+](=O)[O-])c1 [Compound I7, 4-((methylnitroso)amino) phenyl (2-nitro-4-methylbenzyl) carbonate] |  | 1.83% |  |  | 0.12% |  | 
8 | CN(N=O)c1ccc(OC(=O)OCc2cc(Cl)ccc2[N+](=O)[O-])cc1 [Compound I8, 4-((methylnitroso)amino) phenyl (2-nitro-5-chlorobenzyl) carbonate] |  | 0.93% |  |  | 0.27% |  | 
9 | Cc1ccc([N+](=O)[O-])c(COC(=O)Oc2ccc(N(C)N=O)cc2)c1 [Compound I9, 4-((methylnitroso)amino) phenyl (2-nitro-5-methylbenzyl) carbonate] |  | 0.95% |  |  | 0.23% |  | 
10 | O=[N+]([O-])O[C@H]1CO[C@H]2[C@@H]1OC[C@H]2O[N+](=O)[O-] [Isosorbide dinitrate, isosorbide dinitrate] |  |  |  |  |  |  | viability of hypoxic cells (H9c2 cells [4]; hypoxic condition (O2≤1%), 0.001-10 μM, FIG. 1B): a certain improvement on the cell viability at high concentration; improvement on the cell viability (H9c2 cells [4]; 0.001-10 μM): does not improve the cell viability; NO release amount (H9c2 cells [2]; hypoxia condition, different concentrations (5, 10, 15 μM)): less than that under the normoxia condition
